Data: the NIST ThermoML archive (doi:10.1016/j.jct.2017.11.017)
Numbers after ± are expanded uncertainties.

Assay: activity coefficient (dimensionless); of the first substance listed, at infinite dilution; xn = mol fraction of the nth substance listed
Conditions: 101.33 kPa, Liquid, Chromatography, x1 = 0

SMILES	activity coefficient (298.15 K)	activity coefficient (308.15 K)	activity coefficient (318.15 K)	activity coefficient (328.15 K)	activity coefficient (338.15 K)	activity coefficient (348.15 K)	activity coefficient (358.15 K)	activity coefficient (368.15 K)
C1=CCCCC1 [cyclohexene] + C[n+]1ccn(CCCO)c1.N#CN=C=[N-]	40.7 ± 2.8	38.2 ± 2.6	36.1 ± 2.5	34.5 ± 2.4	32.7 ± 2.2	31.4 ± 2.1	30 ± 2.1	–
CCCc1ccccc1 [propylbenzene] + C[n+]1ccn(CCCO)c1.N#CN=C=[N-]	–	–	26.8 ± 1.8	27.3 ± 1.9	27.6 ± 1.9	27.9 ± 1.9	28.2 ± 1.9	28.4 ± 1.9
CC(C)=O [acetone] + C[n+]1ccn(CCCO)c1.N#CN=C=[N-]	–	–	1.76 ± 0.12	1.83 ± 0.12	1.92 ± 0.13	2 ± 0.14	2.09 ± 0.14	2.19 ± 0.15
CCOC(C)(C)C [2-ethoxy-2-methylpropane] + C[n+]1ccn(CCCO)c1.N#CN=C=[N-]	–	–	78.5 ± 5.4	76.2 ± 5.2	74.5 ± 5.1	73.1 ± 5	72.1 ± 4.9	70.5 ± 4.8
CCCC(=O)OC [methyl butanoate] + C[N+]1(CCCO)CCOCC1.N#C[N-]C#N	–	–	15.8 ± 1.1	15.9 ± 1.1	16.1 ± 1.1	16.2 ± 1.1	16.3 ± 1.1	16.5 ± 1.1
C1CCCCCC1 [cycloheptane] + C[N+]1(CCCO)CCOCC1.N#C[N-]C#N	–	391 ± 27	341 ± 23	297 ± 20	260 ± 18	230 ± 16	206 ± 14	185 ± 13
Cc1ccccc1 [toluene] + C[n+]1ccn(CCCO)c1.N#CN=C=[N-]	–	–	7.75 ± 0.53	8 ± 0.55	8.27 ± 0.56	8.51 ± 0.58	8.84 ± 0.6	9.09 ± 0.62
c1ccccc1 [benzene] + C[N+]1(CCCO)CCOCC1.N#C[N-]C#N	–	–	6.97 ± 0.48	7.09 ± 0.48	7.2 ± 0.49	7.33 ± 0.5	7.41 ± 0.51	7.57 ± 0.52
CCCCCO [pentan-1-ol] + C[n+]1ccn(CCCO)c1.N#CN=C=[N-]	–	–	4.16 ± 0.28	4.14 ± 0.28	4.1 ± 0.28	4.06 ± 0.28	4.08 ± 0.28	4.05 ± 0.28
O [water] + C[n+]1ccn(CCCO)c1.N#CN=C=[N-]	–	–	0.35 ± 0.03	0.36 ± 0.03	0.37 ± 0.03	0.38 ± 0.03	0.4 ± 0.03	0.41 ± 0.03
C1CCOC1 [tetrahydrofuran] + C[N+]1(CCCO)CCOCC1.N#C[N-]C#N	–	–	4.57 ± 0.31	4.61 ± 0.31	4.67 ± 0.32	4.72 ± 0.32	4.78 ± 0.33	4.83 ± 0.33
CCOC(C)=O [ethyl acetate] + C[N+]1(CCCO)CCOCC1.N#C[N-]C#N	–	–	9.71 ± 0.66	9.78 ± 0.67	9.83 ± 0.67	9.91 ± 0.68	10 ± 0.7	10.1 ± 0.7
CCCC=O [butanal] + C[n+]1ccn(CCCO)c1.N#CN=C=[N-]	–	–	2.68 ± 0.18	2.92 ± 0.2	3.19 ± 0.22	3.43 ± 0.23	3.72 ± 0.25	3.95 ± 0.27
CCCC(C)=O [pentan-2-one] + C[n+]1ccn(CCCO)c1.N#CN=C=[N-]	–	–	4.94 ± 0.34	5.14 ± 0.35	5.32 ± 0.36	5.46 ± 0.37	5.67 ± 0.39	5.81 ± 0.4
CCC(C)CC [3-methylpentane] + C[n+]1ccn(CCCO)c1.N#CN=C=[N-]	327 ± 22	284 ± 20	249 ± 17	221 ± 15	–	–	–	–
CC(C)(C)O [2-methylpropan-2-ol] + C[N+]1(CCCO)CCOCC1.N#C[N-]C#N	–	–	4.35 ± 0.3	4.27 ± 0.29	4.21 ± 0.29	4.17 ± 0.28	4.14 ± 0.28	4.09 ± 0.28
CC(C)c1ccccc1 [isopropylbenzene] + C[n+]1ccn(CCCO)c1.N#CN=C=[N-]	–	–	25.8 ± 1.8	26.2 ± 1.8	26.6 ± 1.8	26.8 ± 1.8	27.1 ± 1.9	27.4 ± 1.9
CC(C)CO [2-methyl-1-propanol] + C[n+]1ccn(CCCO)c1.N#CN=C=[N-]	–	–	2.79 ± 0.19	2.72 ± 0.19	2.68 ± 0.18	2.64 ± 0.18	2.6 ± 0.18	2.58 ± 0.18
CCOC(C)(C)C [2-ethoxy-2-methylpropane] + C[N+]1(CCCO)CCOCC1.N#C[N-]C#N	339 ± 23	275 ± 19	227 ± 16	191 ± 13	–	–	–	–
Cc1ccccc1C [1,2-dimethylbenzene] + C[n+]1ccn(CCCO)c1.N#CN=C=[N-]	–	–	10.9 ± 0.7	11.3 ± 0.8	11.7 ± 0.8	12 ± 0.8	12.5 ± 0.9	12.8 ± 0.9
C1CCCCC1 [cyclohexane] + C[n+]1ccn(CCCO)c1.N#CN=C=[N-]	115 ± 8	105 ± 7	97.9 ± 6.7	91.1 ± 6.2	85.5 ± 5.9	80.4 ± 5.5	76.6 ± 5.2	–
CC#N [acetonitrile] + C[n+]1ccn(CCCO)c1.N#CN=C=[N-]	–	–	1.19 ± 0.08	1.23 ± 0.08	1.29 ± 0.08	1.33 ± 0.09	1.37 ± 0.09	1.41 ± 0.09
C=CCCCCC [1-heptene] + C[N+]1(CCCO)CCOCC1.N#C[N-]C#N	793 ± 55	634 ± 44	519 ± 36	425 ± 29	359 ± 25	–	–	–
CCCCCCC [heptane] + C[n+]1ccn(CCCO)c1.N#CN=C=[N-]	562 ± 39	504 ± 35	447 ± 31	402 ± 28	366 ± 25	334 ± 23	306 ± 21	–
C=COC(C)=O [vinyl acetate] + C[N+]1(CCCO)CCOCC1.N#C[N-]C#N	–	–	6.62 ± 0.45	6.72 ± 0.46	6.81 ± 0.46	6.89 ± 0.47	6.99 ± 0.48	7.08 ± 0.48
C1CCCC1 [cyclopentane] + C[n+]1ccn(CCCO)c1.N#CN=C=[N-]	69.3 ± 4.7	63.7 ± 4.4	58.7 ± 4	54.5 ± 3.7	–	–	–	–
C=CCCCC [hex-1-ene] + C[n+]1ccn(CCCO)c1.N#CN=C=[N-]	123 ± 8	116 ± 8	109 ± 7	102 ± 7	97.5 ± 6.7	92.5 ± 6.3	89 ± 6.1	–
Cc1ccccc1C [1,2-dimethylbenzene] + C[N+]1(CCCO)CCOCC1.N#C[N-]C#N	–	–	18.2 ± 1.2	18.6 ± 1.3	18.8 ± 1.3	19 ± 1.3	19.2 ± 1.3	19.5 ± 1.3
C1CCOC1 [tetrahydrofuran] + C[n+]1ccn(CCCO)c1.N#CN=C=[N-]	–	–	3.07 ± 0.21	3.19 ± 0.22	3.33 ± 0.23	3.44 ± 0.23	3.57 ± 0.24	3.67 ± 0.25
